“And” between values parts separate entries of the source, which are not always exact repeats. Identical values can stand only once.
Columns and labels:
DIGSA [1] = experiment: Pre-emergence action against DIGSA, 1280 g/ha; format: in vivo, Digitaria sanguinalis; conditions: visual scoring after about 3 weeks vs untreated controls, 100% = plants have died, 0% = like control plants
Procedure, shortened: (§1)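 Percent herbicidal effect, judged by eye relative to untreated pots around 3 weeks after soil-surface treatment. Application: formulated compound in water, 600 L/ha, 0.5% additive, on soil over sown seeds; greenhouse.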

LOLRI [2] = experiment: Pre-emergence action against LOLRI, 1280 g/ha; format: in vivo, Lolium rigidum; conditions: visual scoring after about 3 weeks vs untreated controls, 100% = plants have died, 0% = like control plants
Procedure, shortened: as §1

AVEFA = experiment: Pre-emergence action at 320 g/ha against AVEFA; format: in vivo; conditions: visual scoring after about 3 weeks vs untreated controls
Procedure, shortened: (§2)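 Effect rated visually (% vs untreated control) about 3 weeks after pre-emergence spraying of WP/EC formulation onto soil; spray carried 0.5% additive at 600 l/ha water.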

VERPE = experiment: Pre-emergence action at 320 g/ha against VERPE; format: in vivo, Veronica persica; conditions: visual scoring after about 3 weeks vs untreated controls
Procedure, shortened: as §2

VIOTR [3] = experiment: Pre-emergence action at 320 g/ha against VIOTR; format: in vivo, Viola tricolor; conditions: dosage 320 g/ha
Procedure, shortened: as §2

ALOMY [4] = experiment: Post-emergence action against ALOMY, 1.28 kg/ha; format: in vivo, Alopecurus myosuroides; conditions: dosage 1280 g/ha, visual rating about 3 weeks after treatment vs untreated controls
Procedure, shortened: (§3)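 Foliar application at the one-leaf stage: compound as WP or EC in water with 0.5% additive, sprayed at 600 L/ha. Plants are kept about 3 weeks in the greenhouse, then % herbicidal action is estimated visually (100% = death).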

DIGSA [5] = experiment: Post-emergence action against DIGSA, 1.28 kg/ha; format: in vivo, Digitaria sanguinalis; conditions: dosage 1280 g/ha, visual rating about 3 weeks after treatment vs untreated controls
Procedure, shortened: as §3

ECHCG = experiment: Post-emergence action against ECHCG, 1.28 kg/ha; format: in vivo, Echinochloa crus-galli; conditions: dosage 1280 g/ha, visual rating about 3 weeks after treatment vs untreated controls
Procedure, shortened: as §3

LOLRI [6] = experiment: Post-emergence action against LOLRI, 1.28 kg/ha; format: in vivo, Lolium rigidum; conditions: dosage 1280 g/ha, visual rating about 3 weeks after treatment vs untreated controls
Procedure, shortened: as §3

SETVI = experiment: Post-emergence action against SETVI, 1.28 kg/ha; format: in vivo, Setaria viridis; conditions: dosage 1280 g/ha, visual rating about 3 weeks after treatment vs untreated controls
Procedure, shortened: as §3

ABUTH [7] = experiment: Post-emergence action against ABUTH, 1.28 kg/ha; format: in vivo, Abutilon theophrasti; conditions: dosage 1280 g/ha, visual rating about 3 weeks after treatment vs untreated controls (100% = plants died)
Procedure, shortened: as §3

MATIN = experiment: Post-emergence action against MATIN, 1.28 kg/ha; format: in vivo, Tripleurospermum inodorum (Matricaria inodora); conditions: dosage 1280 g/ha, visual rating about 3 weeks after treatment vs untreated controls (100% = plants died)
Procedure, shortened: as §3

ALOMY [8] = experiment: Post-emergence action against ALOMY, 320 g/ha; format: in vivo, Alopecurus myosuroides; conditions: dosage 320 g/ha, visual rating about 3 weeks after treatment vs untreated controls (100% = plants died)
Procedure, shortened: (§4)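 Sow in sandy loam → greenhouse growth 2–3 wk → spray at one-leaf stage (WP/EC, aqueous, +0.5% additive, 600 l/ha) → hold ~3 wk under optimum conditions → visual rating, 0–100% relative to untreated.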

ABUTH [9] = experiment: Post-emergence action at 320 g/ha against ABUTH; format: in vivo, Abutilon theophrasti; conditions: visual rating about 3 weeks after treatment vs untreated controls
Procedure, shortened: as §4

AMARE [10] = experiment: Post-emergence action at 320 g/ha against AMARE; format: in vivo, Amaranthus retroflexus; conditions: visual rating about 3 weeks after treatment vs untreated controls
Procedure, shortened: as §4

VIOTR [11] = experiment: Post-emergence action at 320 g/ha against VIOTR; format: in vivo, Viola tricolor; conditions: visual rating about 3 weeks after treatment vs untreated controls
Procedure, shortened: as §4

AMARE [12] = experiment: Post-emergence action against AMARE, 1.28 kg/ha; format: in vivo, Amaranthus retroflexus; conditions: dosage 1280 g/ha, visual rating about 3 weeks after treatment vs untreated controls (100% = plants died)
Procedure, shortened: as §3

Structure (SMILES) | Pre-emergence action against DIGSA (DIGSA [1]) [%] | Pre-emergence action against LOLRI (LOLRI [2]) [%] | Pre-emergence action against AVEFA in % (AVEFA) [%] | Pre-emergence action against VERPE in % (VERPE) [%] | Pre-emergence action against VIOTR in % (VIOTR [3]) [%] | Post-emergence action against ALOMY (ALOMY [4]) [%] | Post-emergence action against DIGSA (DIGSA [5]) [%] | Post-emergence action against ECHCG (ECHCG) [%] | Post-emergence action against LOLRI (LOLRI [6]) [%] | Post-emergence action against SETVI (SETVI) | Post-emergence action against ABUTH (ABUTH [7]) [%] | Post-emergence action against MATIN (MATIN) | Post-emergence action against ALOMY (ALOMY [8]) [%] | Post-emergence action against ABUTH in % (ABUTH [9]) [%] | Post-emergence action against AMARE in % (AMARE [10]) [%] | Post-emergence action against VIOTR in % (VIOTR [11]) [%] | Post-emergence action against AMARE (AMARE [12]) | other results
COC(=O)COc1nn(-c2ccccc2)c(-c2ccc(F)nc2)c1Br [VII-018] | 100 | 100 | 80 | 100 | 90 | 100 | 100 | 90 | 90 | 100% | 90 | 90% | 90 | 80 | 90 | 90 | – | –
CCOC(=O)COc1nn(-c2ccccc2F)c(-c2cncc(F)c2)c1Br [VII-015] | 90 | 100 | 90 | 100 | 100 | 100 | 100 | 100 | 100 | 90% | 90 | 100% | 90 | 90 | 90 | 90 | 90% | –
COC(=O)[C@@H](C)Oc1nn(-c2ccccc2)c(-c2cccnc2)c1Br [VII-008] | 100 | 100 | 80 | 100 | 100 | 100 | – | 100 | 100 | 90% | 90 | 90% | 100 | 90 | 90 | 90 | 90% | –
CCOC(=O)COc1nn(-c2ccccc2F)c(-c2ccc(F)nc2)c1Br [VII-012, Ethyl {[4-bromo-1-(2-fluorophenyl)-5-(6-fluoropyridin-3-yl)-1H-pyrazol-3-yl]oxy}acetate] | 100 | – | – | – | – | 100 | 100 | – | 100 | 100% and 90% | 100 | 100% and 90% | 90 | 80 | – | – | 100% and 90% | pest or weed control at 1280 g/ha (LOLRI [2]; Lolium rigidum, 504 h): 100%; pest or weed control at 320 g/ha (AVEFA; Avena fatua, 504 h): 90%; pest or weed control at 320 g/ha (VERPE; Veronica persica, 504 h): 100%; pest or weed control at 320 g/ha (VIOTR [3]; Viola tricolor, 504 h): 100%; pest or weed control at 1280 g/ha (ECHCG; Echinochloa crus-galli, 504 h): 100%; pest or weed control at 320 g/ha (AMARE [10]; Amaranthus retroflexus, 504 h): 90%; pest or weed control at 320 g/ha (VIOTR [11]; Viola tricolor, 504 h): 90%
COC(=O)C(C)Oc1nn(-c2ccccc2)c(-c2cccnc2)c1Cl (stereo not shown) [VII-032] | 90 | 100 | 80 | 100 | 100 | – | 90 | 100 | 100 | 90% | 90 | 90% | 90 | 80 | 90 | 90 | 100% | –
COC(=O)COc1nn(-c2ccccc2F)c(-c2ccc(F)nc2)c1C(F)(F)F [VII-031] | 100 | 100 | 100 | 100 | 100 | 100 | 100 | 100 | 100 | 90% | 90 | 100% | 100 | 90 | 90 | 90 | 90% | –
COC(=O)COc1nn(-c2ccccc2F)c(-c2cncc(F)c2)c1Br [VII-035] | 90 | 100 | 90 | 100 | 100 | 100 | 100 | 100 | 100 | 90% | 90 | 90% | 90 | 90 | 90 | 90 | 90% | –
COC(=O)CCOC(=O)COc1nn(-c2ccccc2F)c(-c2ccc(F)nc2)c1Br [VII-111] | 100 | 100 | 90 | 100 | 100 | 100 | 100 | 100 | 90 | 100% | 90 | 100% | 100 | 80 | 90 | 90 | 90% | –

Source: US12180187B2, “1-phenyl-5-azinylpyrazolyl-3-oxyalkyl acids and their use for controlling unwanted plant growth” (BAYER AKTIENGESELLSCHAFT, priority 2019, dated 2024)
